Source: the supplement of paper PMC10307832

Legend:
Test in all cases: relative viability (nuclei count vs DMSO), 5 days (fraction); higher = more cells survive
[1] = compound: O=c1[nH]cc(F)c(=O)[nH]1 [5-Fluorouracil] + CC(=O)Nc1cccc(-n2c(=O)n(C3CC3)c(=O)c3c(Nc4ccc(I)cc4F)n(C)c(=O)c(C)c32)c1 [Trametinib] (partner 0.02 µM)
Outline: (§1)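 A single step with final 0.05% Triton X-100, 1% formaldehyde and 1 ug/ml Hoechst fixed the cells and stained nuclei 5 days after treatment. Lung cancer cell lines in 1536-well plates had been treated by pin tool the day after seeding with one drug alone or a fixed anchor-drug dose plus five library-drug doses (not always all listed) in √10 steps, and nuclei were counted on 4× images. Relative viability is the ratio of nuclei in treated wells to nuclei in vehicle wells, taken as the median of duplicate plates.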

[2] = compound: O=c1[nH]cc(F)c(=O)[nH]1 [5-Fluorouracil] + N=C(N)NC(=N)NCCc1ccccc1 [Phenformin] (partner 250 µM)
Outline: as §1

[3] = compound: O=c1[nH]cc(F)c(=O)[nH]1 [5-Fluorouracil] + CS(=O)(=O)N1CCN(Cc2cc3nc(-c4cccc5[nH]ncc45)nc(N4CCOCC4)c3s2)CC1 [Pictilisib] (partner 1 µM)
Outline: as §1

[4] = compound: CN[C@@H]1C[C@H]2O[C@@](C)([C@@H]1OC)n1c3ccccc3c3c4c(c5c6ccccc6n2c5c31)C(=O)NC4 [Staurosporine] + CC(=O)c1c(C)c2cnc(Nc3ccc(N4CCNCC4)cn3)nc2n(C2CCCC2)c1=O [Palbociclib] (partner 0.5 µM)
Outline: as §1

[5] = compound: CN[C@@H]1C[C@H]2O[C@@](C)([C@@H]1OC)n1c3ccccc3c3c4c(c5c6ccccc6n2c5c31)C(=O)NC4 [Staurosporine] + CC(C)C[C@H](NC(=O)[C@H](Cc1ccccc1)NC(=O)c1cnccn1)B(O)O [Bortezomib] (partner 0.002 µM)
Outline: as §1

UMC-11
relative viability ([1]; first compound 0.02 µM): 0.711
relative viability ([1]; first compound 0.2 µM): 0.673
relative viability ([1]; first compound 0.6325 µM): 0.448
relative viability ([2]; first compound 0.02 µM): 0.368
relative viability ([2]; first compound 0.2 µM): 0.308
relative viability ([2]; first compound 0.6325 µM): 0.326
relative viability ([2]; first compound 2 µM): 0.339
relative viability ([3]; first compound 0.02 µM): 0.834
relative viability ([3]; first compound 0.2 µM): 0.601
relative viability ([3]; first compound 0.6325 µM): 0.397
relative viability ([3]; first compound 2 µM): 0.36
relative viability ([4]; first compound 0.005 µM): 0.335
relative viability ([4]; first compound 0.05 µM): 0.201
relative viability ([4]; first compound 0.1581 µM): 0.152
relative viability ([4]; first compound 0.5 µM): 0.158
relative viability ([5]; first compound 0.005 µM): 0.664
relative viability ([5]; first compound 0.01581 µM): 0.131
relative viability ([5]; first compound 0.05 µM): 0.454
relative viability ([5]; first compound 0.1581 µM): 0.0878
relative viability ([5]; first compound 0.5 µM): 0.0678
